# Assay results as given in patent US11191754B2, “Inhibitors of nucleotidyl transferases and uses in herpes and hepatitis viral infections therefor” (Saint Louis University, priority 2015, dated 2021).
# Legend:
# HBV [1] = assay: Chou-Talalay combination analysis with Lamivudine against HBV replication; format: cell-based, hepatitis B virus; conditions: together with Lamivudine; CI <1.0 indicates synergy
# Text: Current nucleos(t)ide analog therapy for HBV has converted hepatitis type B from an implacably progressing illness to a controllable disease. However, patients are only very rarely cured, in part due to the incomplete inhibition of HBV replication. The inventors hypothesized that the novel RNaseH inhibitors would work synergistically with the existing nucleos(t)ide analogs because the two classes of drugs target physically distinct active sites on the viral polymerase protein. […] RNAseH inhibitors from two different chemical classes were employed, compound #1 [2-hydroxyisoquinoline-1,3(2H,4H)-dione], an HID, and #46 (β-thujaplicinol), an α-hydroxytropolone, were tested. Chou-Talaly analysis yields a combination index (CI). CI values <1.0 indicate synergy, CIs of approximately 1.0 indicate additive interactions, and CI values >1.0 indicate antagonism. CI values are calculated at various efficacy levels (EC50, EC75, EC90, and EC95), and a weighted CI value favoring higher efficacy levels is also generated. FIGS. 4A & 4B show the results of four experiments employing compound #1 and three with compound #46. […] Therefore, RNAseH inhibitors act strongly synergistically with an approved nucleos(t)ide analog drug against HBV.
# HBV RNAseH = assay: Biochemical RNAseH assay with patient-derived variant HBV RNAseH enzymes; parameters: species or system hepatitis B virus; conditions: four genotype D patient-derived enzymes; compound at its IC50 (FIGS. 5A & 5B)
# Experimental: RNaseH activity was measured using an oligonucleotide-directed RNA cleavage assay as previously described in Hu, et al., Tavis, et al., and Cai, et al. (2013; 2013; and 2014, respectfully). Briefly, 6 μL protein extract was mixed on ice with an internally ^32P-labeled 264 nt RNA derived from the Duck Hepatitis B Virus genome (DRF+ RNA) plus 3 μg oligonucleotide D2507- or its inverse-complement oligonucleotide D2526+ as a negative control. This mixture was incubated with test compounds in 50 mM Tris pH 8.0, 190 mM NaCl, 5 mM MgCl2, 3.5 mM DTT, 0.05% NP40, 6% glycerol, and 1% DMSO at 42° C. for 90 minutes. Cleavage products were resolved by denaturing polyacrylamide gel electrophoresis, detected by autoradiography, and quantified using ImageJ. Non-specific background values were determined from the incorrect oligonucleotide negative control lane and subtracted from all experimental values. IC50 values were then calculated with GraphPad Prism using three-parameter log(inhibitor) vs. response non-linear curve fitting with the curve minimum set to zero to reflect background subtraction.
# HBV has 8 genotypes differing in sequence by 8%. Genetic diversity in the RNAseH domain is about 6%, which is easily high enough to modulate viral sensitivity to RNAseH inhibitors. […]
# HBV [2] = conditions: HBV patients; cited from earlier work
compound,measurement,setting,value
"CC(C)c1ccc(O)c(=O)c(O)c1 [#46, β-thujaplicinol]",weighted combination index (CI),HBV [1],0.44±0.3
same,inhibition of HBV RNAseH,HBV RNAseH,about 50%
Interferon α,sustained clinical improvement,HBV [2],20-30 % of patients
